Experimental findings from ChEMBL document CHEMBL5331114, “Discovery of Pyxinol Amide Derivatives Bearing Amino Acid Residues as Nonsubstrate Allosteric Inhibitors of P-Glycoprotein-Mediated Multidrug Resistance” (J Med Chem, 2023) are described below.

Holding throughout (assay type): functional
Holding throughout (settings): read-out: Survival

Assay [1] can be described thus: Reversal of multidrug resistance in human KBV Cells assessed as increase in PTX-induced cytotoxicity by measuring cell survival rate at 5 uM incubated for 72 hrs in presence of paclitaxel by MTT assay relative to control.
Assay [2] in a line: Reversal of multidrug resistance in human KBV Cells assessed as increase in PTX-induced cytotoxicity by measuring cell survival rate at 10 uM incubated for 72 hrs in presence of paclitaxel by MTT assay relative to control.
A short description of assay [3]: Cytotoxicity against human KBV Cells assessed as cell survival rate at 10 uM incubated for 72 hrs by MTT assay.

For `CC(C)(O)[C@@H]1CC[C@@](C)([C@H]2CC[C@]3(C)[C@@H]2[C@H](O)C[C@@H]2[C@@]4(C)CC[C@H](NC(=O)[C@@H](N)Cc5ccc(O)cc5)C(C)(C)[C@@H]4CC[C@]23C)O1`, the viability at 5 µM in assay [1] was 88%. In addition, the viability at 10 µM in assay [2] was 71%; in assay [3] it was 91%.
The matching figures for `CC(C)[C@H](NC(=O)OC(C)(C)C)C(=O)N[C@H]1CC[C@]2(C)[C@H]3C[C@@H](O)[C@@H]4[C@@H]([C@]5(C)CC[C@@H](C(C)(C)O)O5)CC[C@@]4(C)[C@]3(C)CC[C@H]2C1(C)C`: 48%, 31% and 89%.
With `CC(C)(O)[C@@H]1CC[C@@](C)([C@H]2CC[C@]3(C)[C@@H]2[C@H](O)C[C@@H]2[C@@]4(C)CC[C@H](NC(=O)[C@@H]5CCCN5)C(C)(C)[C@@H]4CC[C@]23C)O1`, in assay [1], the viability at 5 µM came out at 83%. Besides, the viability at 10 µM in assay [2] was determined as 58%; in assay [3] it was 78%.
For `CC(C)(O)[C@@H]1CC[C@@](C)([C@H]2CC[C@]3(C)[C@@H]2[C@H](O)C[C@@H]2[C@@]4(C)CC[C@H](N)C(C)(C)[C@@H]4CC[C@]23C)O1`, the viability at 5 µM in assay [1] is 94%. In addition, the viability at 10 µM in assay [2] came out at 55%; in assay [3], 98%.
In the same order, the values of `CC(C)(O)[C@@H]1CC[C@@](C)([C@H]2CC[C@]3(C)[C@@H]2[C@H](O)C[C@@H]2[C@@]4(C)CC[C@H](NC(=O)[C@@H](N)CC(=O)O)C(C)(C)[C@@H]4CC[C@]23C)O1` are 84%, 88% and 90%.
In the same order, the values of `CC(C)(O)[C@H]1CC[C@@](C)([C@H]2CC[C@]3(C)[C@@H]2[C@H](O)C[C@@H]2[C@@]4(C)CC[C@H](NC(=O)[C@@H](N)CC(=O)O)C(C)(C)[C@@H]4CC[C@]23C)O1` are 96%, 100% and 95%.
The matching figures for `CC(C)(C)OC(=O)C[C@H](NC(=O)OC(C)(C)C)C(=O)N[C@H]1CC[C@]2(C)[C@H]3C[C@@H](O)[C@@H]4[C@@H]([C@]5(C)CC[C@H](C(C)(C)O)O5)CC[C@@]4(C)[C@]3(C)CC[C@H]2C1(C)C`: 41%, 28% and 152%.
`CC(C)(C)OC(=O)N1CCC[C@H]1C(=O)O[C@H]1CC[C@]2(C)[C@H]3C[C@@H](O)[C@@H]4[C@@H]([C@]5(C)CC[C@H](C(C)(C)O)O5)CC[C@@]4(C)[C@]3(C)CC[C@H]2C1(C)C`: in assay [1], the viability at 5 µM was determined as 111%. Moreover, the viability at 10 µM in assay [2] was found to be 70%; in assay [3], 102%.
Take `CC(C)(O)[C@H]1CC[C@@](C)([C@H]2CC[C@]3(C)[C@@H]2[C@H](O)C[C@@H]2[C@@]4(C)CC[C@H](NC(=O)[C@@H](N)CCCCN)C(C)(C)[C@@H]4CC[C@]23C)O1`: the viability at 5 µM in assay [1] is 110%. Further, the viability at 10 µM was determined as 112% in assay [2] and 116% in assay [3].
In the same order, the values of `CC(C)(C)OC(=O)NCCCC[C@H](NC(=O)OC(C)(C)C)C(=O)N[C@H]1CC[C@]2(C)[C@H]3C[C@@H](O)[C@@H]4[C@@H]([C@]5(C)CC[C@@H](C(C)(C)O)O5)CC[C@@]4(C)[C@]3(C)CC[C@H]2C1(C)C` are 36%, 29% and 99%.
In the same order, the values of `CC(C)(O)[C@H]1CC[C@@](C)([C@H]2CC[C@]3(C)[C@@H]2[C@H](O)C[C@@H]2[C@@]4(C)CC[C@H](OC(=O)[C@@H]5CCCN5)C(C)(C)[C@@H]4CC[C@]23C)O1` are 76%, 61% and 108%.
In the same order, the values of `CC(C)(C)OC(=O)N1CCC[C@H]1C(=O)N[C@H]1CC[C@]2(C)[C@H]3C[C@@H](O)[C@@H]4[C@@H]([C@]5(C)CC[C@@H](C(C)(C)O)O5)CC[C@@]4(C)[C@]3(C)CC[C@H]2C1(C)C` are 44%, 30% and 111%.
Regarding `CC(C)(O)[C@H]1CC[C@@](C)(C2CC[C@]3(C)[C@@H]2[C@H](O)C[C@@H]2[C@@]4(C)CC[C@H](O)C(C)(C)[C@@H]4CC[C@]23C)O1` (some centres undefined), the viability at 10 µM in assay [2] amounted to 64%; in assay [3], 94%.
Consider `CC(C)(O)[C@@H]1CC[C@@](C)([C@H]2CC[C@]3(C)[C@@H]2[C@H](O)C[C@@H]2[C@@]4(C)CC[C@H](NC(=O)[C@@H](N)Cc5ccccc5)C(C)(C)[C@@H]4CC[C@]23C)O1`, for which, in assay [1], the viability at 5 µM worked out at 67%. The values for the viability at 10 µM in assay [2] and in assay [3] were 36% and 89%, respectively.
The matching figures for `CC(C)(O)[C@H]1CC[C@@](C)([C@H]2CC[C@]3(C)[C@@H]2[C@H](O)C[C@@H]2[C@@]4(C)CC[C@H](NC(=O)[C@@H](N)Cc5ccc(O)cc5)C(C)(C)[C@@H]4CC[C@]23C)O1`: 59%, 35% and 93%.
The matching figures for `CC(C)(C)OC(=O)N1CCC[C@H]1C(=O)N[C@H]1CC[C@]2(C)[C@H]3C[C@@H](O)[C@@H]4[C@@H]([C@]5(C)CC[C@H](C(C)(C)O)O5)CC[C@@]4(C)[C@]3(C)CC[C@H]2C1(C)C`: 41%, 32% and 155%.
In the same order, the values of `CC(C)(C)OC(=O)N[C@@H](Cc1ccc(OC(C)(C)C)cc1)C(=O)N[C@H]1CC[C@]2(C)[C@H]3C[C@@H](O)[C@@H]4[C@@H]([C@]5(C)CC[C@H](C(C)(C)O)O5)CC[C@@]4(C)[C@]3(C)CC[C@H]2C1(C)C` are 42%, 38% and 125%.
Take `CC(C)(O)[C@@H]1CC[C@@](C)([C@H]2CC[C@]3(C)[C@@H]2[C@H](O)C[C@@H]2[C@@]4(C)CC[C@H](NC(=O)[C@@H](N)CCCCN)C(C)(C)[C@@H]4CC[C@]23C)O1`: the viability at 5 µM in assay [1] came to 90%. Moreover, the results for the viability at 10 µM in assay [2] and in assay [3] were 88% and 87%, respectively.
The matching figures for `CC(C)(C)OC(=O)NCCCC[C@H](NC(=O)OC(C)(C)C)C(=O)N[C@H]1CC[C@]2(C)[C@H]3C[C@@H](O)[C@@H]4[C@@H]([C@]5(C)CC[C@H](C(C)(C)O)O5)CC[C@@]4(C)[C@]3(C)CC[C@H]2C1(C)C`: 47%, 33% and 119%.
The matching figures for `CC(C)[C@H](NC(=O)OC(C)(C)C)C(=O)N[C@H]1CC[C@]2(C)[C@H]3C[C@@H](O)[C@@H]4[C@@H]([C@]5(C)CC[C@H](C(C)(C)O)O5)CC[C@@]4(C)[C@]3(C)CC[C@H]2C1(C)C`: 36%, 21% and 114%.
